According to patent US20250051347A1, “BIFUNCTIONAL CHIMERIC HETEROCYCLIC COMPOUND AND USE THEREOF AS ANDROGEN RECEPTOR DEGRADER” (Hinova Pharmaceuticals, Inc., priority 2021, published 2025):

Tests used:
22RV1 cells = conditions: Homo sapiens, 22Rv1, 144 h, read-out: 22RV1 IC50 (nM), 22RV1 cells, 6 days culture, CCK-8, OD 450 nm
Method: • 22RV1 cell lines (Cobioer, CBP6034) • Penicillin-Streptomycin (Hyclone, Cat. No. SV30010) • Cell counting kit-8 (Signalway Antibody, Cat. No. CP002)
Then, two wells were set for each concentration. 20 μL of the diluted compound solution was added to the cell culture well, and then the plate was gently shaken to mix. In addition, the experiment included 3 negative control wells only containing cells and 3 blank control wells only containing culture medium.

[1] = biological target: T1, androgen receptor (AR) splicing variant AR-v7 (Homo sapiens, UniProt P10275); test: Degradation activity on androgen receptor splicing variant AR-v7 in 22RV1 cells (ELISA); type: cell-based; conditions: AR-v7 degradation in 22RV1 cells, 48 h, class symbols
T1 construct: The degradation activity of compounds on AR-v7 in 22RV1 cells; host or cells: 22RV1 cells
T1 sequence (P10275 1-644 isoform P10275-3): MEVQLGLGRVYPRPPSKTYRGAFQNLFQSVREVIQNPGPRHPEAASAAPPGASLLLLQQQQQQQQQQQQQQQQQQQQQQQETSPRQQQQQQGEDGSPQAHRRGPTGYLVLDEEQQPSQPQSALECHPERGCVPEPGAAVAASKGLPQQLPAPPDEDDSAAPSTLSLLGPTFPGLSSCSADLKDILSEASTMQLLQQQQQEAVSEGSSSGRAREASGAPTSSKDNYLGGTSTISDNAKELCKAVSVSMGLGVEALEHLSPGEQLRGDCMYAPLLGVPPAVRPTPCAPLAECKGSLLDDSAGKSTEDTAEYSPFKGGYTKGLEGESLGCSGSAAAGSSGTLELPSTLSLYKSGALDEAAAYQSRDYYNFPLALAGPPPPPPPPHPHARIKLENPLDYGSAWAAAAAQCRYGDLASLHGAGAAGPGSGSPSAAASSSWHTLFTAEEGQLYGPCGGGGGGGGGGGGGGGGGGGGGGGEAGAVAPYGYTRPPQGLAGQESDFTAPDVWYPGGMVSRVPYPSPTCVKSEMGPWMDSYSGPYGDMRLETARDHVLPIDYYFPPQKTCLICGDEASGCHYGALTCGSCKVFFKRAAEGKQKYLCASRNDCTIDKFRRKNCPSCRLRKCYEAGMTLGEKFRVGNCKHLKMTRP

Row | SMILES | IC50 (22RV1 cells) [nM] | DC50 [1] [nM]
1 | CC(C)(c1ccc(OCc2ccnc(-c3cn[nH]c3)n2)cc1)c1ccc(O[C@H]2C[C@@H](Nc3ccc4c(c3)C(=O)N(C3CCC(=O)NC3=O)C4=O)C2)cc1 (some centres unmarked) [Example 273] | 10 | < 10
2 | CC(C)(c1ccc(OCc2ccnc(-c3ncon3)n2)cc1)c1ccc(O[C@H]2C[C@@H](Nc3ccc4c(c3)C(=O)N(C3CCC(=O)NC3=O)C4=O)C2)cc1 (some centres unmarked) [Example 276] | 6 | < 10
3 | CC(C)(c1ccc(OCc2ccnc(C#N)n2)cc1)c1ccc(O[C@H]2C[C@@H](Nc3ccc4c(c3)C(=O)N(C3CCC(=O)NC3=O)C4=O)C2)cc1 (some centres unmarked) [Example 277, 4-((4-(2-(4-((1s,3s)-3-((2-(2,6-dioxopiperidin-3-yl)-1,3-dioxoisoindolin-5-yl)amino)cyclobutyloxy)phenyl)propan-2-yl)phenoxy)methyl)pyrimidin-2-carbonitrile] | 5 | < 10
4 | Cc1nc(-c2nccc(COc3ccc(C(C)(C)c4ccc(O[C@H]5C[C@@H](Nc6ccc7c(c6)C(=O)N(C6CCC(=O)NC6=O)C7=O)C5)cc4)cc3)n2)no1 (some centres unmarked) [Example 278] | 6 | < 10
5 | CC(Oc1ccc(C(C)(C)c2ccc(O[C@H]3C[C@H](Nc4ccc5c(c4)C(=O)N(C4CCC(=O)NC4=O)C5=O)C3)cc2)cc1)c1ncnc(N2CC3(COC3)C2)c1F (some centres unmarked) [Example 280] | 7 | < 10
6 | CC(C)(c1ccc(OCc2ccnc(-c3ncon3)n2)cc1)c1ccc(O[C@H]2C[C@H](Nc3ccc4c(c3)C(=O)N(C3CCC(=O)NC3=O)C4=O)C2)cc1 (some centres unmarked) [Example 281] | 5 | < 10
7 | Cc1nc(-c2nccc(Oc3ccc(C(C)(C)c4ccc(O[C@H]5C[C@H](Nc6ccc7c(c6)C(=O)N(C6CCC(=O)NC6=O)C7=O)C5)cc4)cc3)n2)no1 (some centres unmarked) [Example 288] | 4 | < 10
8 | Cc1nnc(-c2nccc(Oc3ccc(C(C)(C)c4ccc(O[C@H]5C[C@H](Nc6ccc7c(c6)C(=O)N(C6CCC(=O)NC6=O)C7=O)C5)cc4)cc3)n2)o1 (some centres unmarked) [Example 289] | 7 | < 10
9 | CC(C)C(O)c1ncc(Oc2ccc(C(C)(C)c3ccc(O[C@H]4C[C@H](Nc5ccc6c(c5)C(=O)N(C5CCC(=O)NC5=O)C6=O)C4)cc3)cc2)cn1 (some centres unmarked) [Example 290] | 7 | < 10
10 | CC(C)C(=O)c1ncc(Oc2ccc(C(C)(C)c3ccc(O[C@H]4C[C@H](Nc5ccc6c(c5)C(=O)N(C5CCC(=O)NC5=O)C6=O)C4)cc3)cc2)cn1 (some centres unmarked) [Example 291] | 16 | < 10
11 | Cc1nc(-c2ncc(Oc3ccc(C4(c5ccc(O[C@H]6C[C@H](Nc7ccc8c(c7)C(=O)N(C7CCC(=O)NC7=O)C8=O)C6)cc5)CCCC4)cc3)cn2)no1 (some centres unmarked) [Example 293] | 2.5 | < 10
12 | CCC(CC)(c1ccc(Oc2cnc(C(C)=O)cn2)cc1)c1ccc(O[C@H]2C[C@H](Nc3ccc4c(c3)C(=O)N(C3CCC(=O)NC3=O)C4=O)C2)cc1 (some centres unmarked) [Example 294] | 4.2 | < 10
13 | CCC(CC)(c1ccc(Oc2cnc(C(C)O)cn2)cc1)c1ccc(O[C@H]2C[C@@H](Nc3ccc4c(c3)C(=O)N(C3CCC(=O)NC3=O)C4=O)C2)cc1 (some centres unmarked) [Example 295] | 11 | < 10
14 | CCC(CC)(c1ccc(Oc2cnc(C(C)=O)cn2)cc1)c1ccc(O[C@H]2C[C@@H](Nc3ccc4c(c3)C(=O)N(C3CCC(=O)NC3=O)C4=O)C2)cc1 (some centres unmarked) [Example 296] | 7 | < 10
15 | CC(=O)c1nccc(COc2ccc(C(C)(C)c3ccc(OC[C@H](CCCl)Nc4ccc5c(c4)C(=O)N(C4CCC(=O)NC4=O)C5=O)cc3)cc2)n1 (some centres unmarked) [Example 306] | 13 | < 10
16 | CC(=O)c1nccc(COc2ccc(C(C)(C)c3ccc(OC[C@@H]4CCN4c4ccc5c(c4)C(=O)N(C4CCC(=O)NC4=O)C5=O)cc3)cc2)n1 (stereo partly drawn) [Example 308, 5-((S)-2-((4-(2-(4-((2-acetylpyrimidin-4-yl)methoxy)phenyl)propan-2-yl)phenoxy)methyl)azetidin-1-yl)-2-(2,6-dioxopiperidin-3-yl)isoindolin-1,3-dione] | 19 | 11 to 100
17 | CC(C)(c1ccc(Oc2ncc(N3CC4(COC4)C3)cn2)cc1)c1ccc(O[C@H]2C[C@H](Nc3ccc4c(c3)C(=O)N(C3CCC(=O)NC3=O)C4=O)C2)cc1 (some centres unmarked) [Example 311] | 18 | < 10
18 | Cc1noc(-c2ccc(Oc3ccc(C(C)(C)c4ccc(O[C@H]5C[C@H](Nc6ccc7c(c6)C(=O)N(C6CCC(=O)NC6=O)C7=O)C5)cc4)cc3)nn2)n1 (some centres unmarked) [Example 331] | 18 | < 10
19 | CC(C)(c1ccc(Oc2cccnn2)cc1)c1ccc(O[C@H]2C[C@H](Nc3ccc4c(c3)C(=O)N(C3CCC(=O)NC3=O)C4=O)C2)cc1 (some centres unmarked) [Example 333, 2-(2,6-dioxopiperidin-3-yl)-5-((1r,3r)-3-(4-(2-(4-(pyridazine-3-oxy)phenyl)propan-2-yl)phenoxy)cyclobutyl)aminoisoindolin-1,3-dione] | 3 | < 10
20 | Cc1nc(-c2ncc(Oc3ccc(C4(c5ccc(O[C@H]6C[C@H](Nc7ccc8c(c7)C(=O)N(C7CCC(=O)NC7=O)C8=O)C6)cc5)CCCCC4)cc3)cn2)no1 (some centres unmarked) [Example 339] | 2 | < 10
21 | CC(=O)c1nccc(COc2ccc(C(C)(C)c3ccc(OCCCNc4ccc5c(c4)C(=O)N(C4CCC(=O)NC4=O)C5=O)cc3)cc2)n1 (centres unmarked) [Example 343, 5-((3-(4-(2-(4-((2-acetylpyrimidin-4-yl)methoxy)phenyl)isopropan-2-yl)phenoxy)propyl)amino)-2-(2,6-dioxopiperidin-3-yl)isoindolin-1,3-dione] | 19 | 11 to 100
22 | CC(O)c1nccc(COc2ccc(C(C)(C)c3ccc(OCCCNc4ccc5c(c4)C(=O)N(C4CCC(=O)NC4=O)C5=O)cc3)cc2)n1 (centres unmarked) [Example 345, 2-(2,6-dioxopiperidin-3-yl)-5-((3-(4-(2-(4-((2-(1-hydroxylethyl)pyrimidin-4-yl)methoxy)phenyl)isopropan-2-yl)phenoxy)propyl)amino)isoindolin-1,3-dione] | 10 | 11 to 100
23 | CCC(CC)(c1ccc(OCCCNc2ccc3c(c2)C(=O)N(C2CCC(=O)NC2=O)C3=O)cc1)c1ccc(OCc2ccnc(C(C)=O)n2)cc1 (centres unmarked) [Example 350, 5-((3-(4-(3-(4-((2-acetylpyrimidin-4-yl)methoxy)phenyl)pentan-3-yl)phenoxy)propyl)amino)-2-(2,6-dioxopiperidin-3-yl)isoindolin-1,3-dione] | 30 | 11 to 100
24 | CC(=O)c1nccc(COc2ccc(C3(c4ccc(OCCCNc5ccc6c(c5)C(=O)N(C5CCC(=O)NC5=O)C6=O)cc4)CCC3)cc2)n1 (centres unmarked) [Example 351, 5-((3-(4-(1-(4-((2-acetylpyrimidin-4-yl)methoxy)phenyl)cyclobutyl)phenoxy)propyl)amino)-2-(2,6-dioxopiperidin-3-yl)isoindolin-1,3-dione] | 7 | < 10
25 | O=C1CCC(N2C(=O)c3ccc(NC4CC(Oc5ccc(C6(c7ccc(OCc8ccnc(N9CC%10(COC%10)C9)n8)cc7)CCC6)cc5)C4)cc3C2=O)C(=O)N1 (centres unmarked) [Example 356, 5-((3-(4-(1-(4-((2-(2-oxa-6-azaspiro[3.3]heptane-6-yl)pyrimidin-4-yl)methoxy)phenyl)cyclobutyl)phenoxy)cyclobutyl)amino)-2-(2,6-dioxopiperidin-3-yl)isoindolin-1,3-dione] | 16 | < 10
26 | COc1nccc(COc2ccc(C3(c4ccc(O[C@H]5C[C@H](Nc6ccc7c(c6)C(=O)N(C6CCC(=O)NC6=O)C7=O)C5)cc4)CCC3)cc2)n1 (some centres unmarked) [Example 357, 2-(2,6-dioxopiperidin-3-yl)-5-(((1r,3r)-3-(4-(1-(4-((2-methoxypyrimidin-4-yl)methoxy)phenyl)cyclobutyl)phenoxy)cyclobutyl)amino)isoindolin-1,3-dione] | 5 | < 10
27 | O=C1CCC(N2C(=O)c3ccc(N[C@H]4C[C@@H](Oc5ccc(S(=O)(=O)c6ccc(OCc7ccnc(N8CC9(COC9)C8)n7)cc6)cc5)C4)cc3C2=O)C(=O)N1 (some centres unmarked) [Example 363, 5-(((1s,3s)-3-(4-((4-((2-(2-oxa-6-azaspiro[3.3]heptane-6-yl)pyrimidin-4-yl)methoxy)phenyl)sulfonyl)phenoxy)cyclobutyl)amino)-2-(2,6-dioxopiperidin-3-yl)isoindolin-1,3-dione] | 24 | < 10
28 | CC(C)(c1ccc(OCc2ccnc(N3CC4(COC4)C3)n2)c(F)c1)c1ccc(O[C@H]2C[C@H](Nc3ccc4c(c3)C(=O)N(C3CCC(=O)NC3=O)C4=O)C2)c(F)c1 (some centres unmarked) [Example 365, 5-(((1r,3r)-3-(4-(2-(4-((2-(2-oxa-6-azaspiro[3.3]heptane-6-yl)pyrimidin-4-yl)methoxy)-3-fluorophenyl)isopropan-2-yl)-2-fluorophenoxy)cyclobutyl)amino)-2-(2,6-dioxopiperidin-3-yl)isoindolin-1,3-dione] | 9 | < 10
